18 compounds from patent publication EP0263209A2, “Anthelmintic quinolinyl acylhydrazones” (THE UPJOHN COMPANY, priority 1986, dated 1988) can be followed below.

The structures appear in SMILES notation. Read-outs that look alike come from different tables or passages of the source.

Holding throughout (format): in vivo
One assay has as its system H. contortus. Description: Sheep experimentally infected with Haemonchus contortus, percentage clearance (Procedure No. 1). To be noted: single sheep per route. The procedure:
In individual experiments all sheep are treated identically, however non-critical variations occur between experiments. All of the sheep used in this procedure are treated twice with levamisole hydrochloride orally at 8 mg/kg or once each with ivermectin parenterally at 200 µg/kg and levamisole hydrochloride orally at 8 mg/kg. The second treatment in each case is administered 4-7 days after the first treatment. Two weeks after the second treatment all sheep are inoculated per os with ∼3,500 to ∼7,500 infective larvae of H. contortus. Rectal fecal samples are taken from each sheep 26-41 days post-inoculation (P.I.), and these samples are examined for eggs of H. contortus using the McMaster counting chamber technique. […] One-three days later on days 27-42 PI each sheep remaining in the study (excluding the nontreated controls) is treated with a test compound (orally or parenterally at 100 mg/kg unless indicated otherwise) or a standard (levamisole hydrochloride orally at 8 mg/kg) or is used as an untreated control. All sheep received food and water ad lib. throughout the experiment. Prior to administration, all solid compounds are finely ground using a mortar and pestle. Oral compounds are suspended in 20-30 ml of sterile vehicle #98 (each ml contains: carboxymethylcellulose = 10 mg, polysorbate80 -4 mg, propylparaben - 0.42 mg) using a sonicator and administered along with a tap water wash via a stomach tube. The parenteral compounds are similarly suspended in 20-30 ml of the sterile vehicle and given by intraperitoneal injecting using a 13 gauge, 2 inch needle and a 50 ml syringe. All test compounds are given to a single sheep/route of administration. Two or more sheep are treated with levamisole hydrochloride and five are used as nontreated controls. All animals are monitored for signs of toxicity following treatment. The sheep are sacrificed 7-12 days after treatment (days 35-49 PI), and the abomasum is ligated and removed from each sheep. Each abomasum is longitudinally sectioned and rinsed into an 80 mesh sieve. Sieve contents are collected in individual containers and fixed in formol-alcohol. Later each sample is transferred to a 1000 or 2000 ml beaker and the volume brought to 400-1000 ml with tap water. The total number of worms in a 40-100 ml aliquot (10%) is determined. When no worms are found in the 10% aliquot, the entire sample is examined. Total worm number/sheep and percentage clearance for each treatment are calculated. Percentage clearance for a particular test compound in a given trial is determined according to the following formula: Percentage Clearance (Test Compound) = [(Mean number of worms recovered from nontreated control sheep - Number of worms recovered from treated sheep)/Mean number of worms recovered from nontreated control sheep] x 100. Sheep which die within 24 hr following treatment are not examined for worms, while any that die between 24 hr post-treatment and necropsy are examined in an identical manner as that described above. The results of various trials are combined and reported in Table I as percentage clearance.

The subject of another assay is Haemonchus. Description: Sheep naturally infected with helminths, mean percentage clearance of adult worms (Procedure No. 2). The following applies: Oral, 100 mg/kg, groups of five. The procedure:
(§1) Parasitized sheep are randomly assigned to groups of five animals based on parasitic burden, sex, and farm origin. Sheep are double ear-tagged, weighed, housed in a barn in community pens, fed hay supplemented with 1/2 lb corn/head/day. Water is given ad lib. Animals are allowed to acclimate for one-two weeks prior to treatment.
(§2) Each group of sheep receives a test compound either orally or parenterally at a dosage rate of 100 mg/kg. A group of sheep is treated with 8 mg/kg of levamisole hydrochloride and another group serves as an untreated control group. Orally administered compounds are suspended in 20-30 ml of sterile vehicle #98 (each ml contains: carboxymethylcellulose - 10 mg, polysorbate80 -4 mg, propylparaben - 0.42 mg) using a sonicator and administered along with a tap water wash via a stomach tube. For parenteral administration, compounds are similarly suspended in 20-30 ml of the sterile vehicle and given by intraperitoneal injection using a 20 gauge, 1 inch needle and a 50 ml syringe. Following treatment, all animals are observed for signs of toxicity.
(§3) The number and classification of helminth eggs per gram of feces (e.p.g.) are determined for each sheep during the acclimation period and in some cases at necropsy. Egg counts are made using the McMaster counting chamber technique and rectal fecal samples. Animals dying during the 24 hours immediately following dosing are not subjected to necropsy. Sheep that die 1-6 days posttreatment are posted and complete worm counts performed. All remaining animals are sacrificed on days 7-8 posttreatment. Each sheep is euthanised and bled out prior to opening the abdominal cavity. Ligatures are placed at the reticuloomasal junction, the pyloric valve, and the ileo-cecal junction. The abomasum and small intestine are freed of fat and mesenteric attachments, longitudinally opened, and their contents placed in individual containers. The mucosal surface of each is washed with tap water, rubbed clean, and rinsed several times. Washings and ingesta for each organ are made up to 1 liter and a 10% aliquot in formalin is stored for later examination. The cecum, large intestine, and colon are freed of mesenteric attachments, each is longitudinally opened, and their contents washed, collected, and made up to 1 liter in 10% formalin. The entire sample is stored. All carcasses are incinerated.
(§4) Ten percent of the total contents collected from the abomasum and small intestine and the entire contents of the large intestine, cecum, and colon are examined under stereoscopic magnification (40X). All worms are identified to genus and in some instances species. Separate adult and larval counts are determined.
(§5) The mean percentage clearance against specific helminths in the test sheep is calculated by subtracting the mean number of helminths observed in the treated sheep at necropsy from the mean number observed in the nontreated controls at necropsy, dividing the remainder by the latter mean number and multiplying by 100. The mean percentage clearances against the various helminths identified in the test sheep are calculated.

The next assay has as its system Nematodirus. Described as above. The following applies: Oral, 100 mg/kg, groups of five. The procedure:
as §1, §2, §3, §4, §5

The subject of a further assay is Oesophagostomum. The assay is described as above. To be noted: Oral, 100 mg/kg, groups of five. The procedure:
as §1, §2, §3, §4, §5

The subject of the next assay is Ostertagia. The description is as above. The following applies: Oral, 100 mg/kg, groups of five. The procedure:
as §1, §2, §3, §4, §5

The subject of another assay is Trichostrongylus axei. Described as above. To be noted: Oral, 100 mg/kg, groups of five. The procedure: as §1, §2, §3, §4, §5
For assay [1], the system named is Trichostrongylus colubriformis. The description is as above. To be noted: Oral, 100 mg/kg, groups of five. The procedure:
as §1, §2, §3, §4, §5

The subject of a further assay is Trichuris. Described as above. The following applies: Oral, 100 mg/kg, groups of five. The procedure:
as §1, §2, §3, §4, §5

[2] abbreviates: ip, intraperitoneal administration, read-out: H. contortus %Clearance I.P.
Where [3] appears, read: oral administration, read-out: H. contortus %Clearance P.O.

On to `Cc1cccc(C(=O)NN=Cc2ccc3ccccc3n2)c1` [Compound 4, 3-methylbenzoic acid (2-quinolinylmethyl-ene)hydrazide], for which the inhibition in vivo at 100 mg/kg in the assay with H. contortus (setting [2]) was found to be 29.8%; in the assay on H. contortus (setting [3]), 53.3%.

Take `CCOC(=O)NN=Cc1ccnc2ccccc12` [Compound 6, ethyl (4-quinolinylmethylene)carbazate]: the inhibition in vivo at 100 mg/kg with H. contortus (setting [2]) worked out at 61.2%; in the assay with H. contortus (setting [3]) it was 82.9%. Moreover, the “Percentage Clearance of Adult Worms H.” value with Haemonchus came to 94.1%. The “Percentage Clearance of Adult Worms N.” value in the assay on Nematodirus was 45.2%. In the assay on Oesophagostomum, the “Percentage Clearance of Adult Worms Oes.” value was found to be 33.3%. In addition, the “Percentage Clearance of Adult Worms Ost.” value in the assay on Ostertagia worked out at 79.4%. Moreover, the “Percentage Clearance of Adult Worms T.a.” value in the assay with Trichostrongylus axei came to 0%. Also, the “Percentage Clearance of Adult Worms T.c.” value in assay [1] stood at 61.4%. The “Percentage Clearance of Adult Worms Trich.” value in the assay on Trichuris was 11.1%.

As for `O=C(NN=Cc1ccc2ccccc2n1)c1ccccc1` [Compound 8, benozic acid (2-quinolinylmethylene) hydrazide], the inhibition in vivo at 100 mg/kg with H. contortus (setting [3]) turned out to be 33%.

On to `O=C(NN=Cc1ccc2ccccc2n1)c1cccnc1` [Compound 9], for which the inhibition in vivo at 100 mg/kg with H. contortus (setting [3]) was determined as 76.8%.

For the compound `O=C(NN=Cc1ccnc2ccccc12)c1ccccc1` [Compound 11], the inhibition in vivo at 100 mg/kg with H. contortus (setting [3]) worked out at 96.8%.

In the case of `NC(=O)NCC(=O)NN=Cc1ccc2ccccc2n1` [Compound 12], in the assay with H. contortus (setting [3]), the inhibition in vivo at 100 mg/kg worked out at 32.9%.

`CCOc1ccc(C(=O)NN=Cc2ccc3ccccc3n2)cc1` [Compound 14]: the inhibition in vivo at 100 mg/kg amounted to 0% in the assay on H. contortus (setting [2]) and 36.8% in the assay on H. contortus (setting [3]).

On to `Cc1ccccc1C(=O)NN=Cc1ccc2ccccc2n1` [Compound 15], for which the inhibition in vivo at 100 mg/kg in the assay on H. contortus (setting [2]) is 0%; in the assay with H. contortus (setting [3]) it was 32%.

As for `O=C(NN=Cc1ccnc2ccccc12)c1cccs1` [Compound 16], the inhibition in vivo at 100 mg/kg was determined as 80.1% with H. contortus (setting [2]) and 25.2% with H. contortus (setting [3]).

For the compound `O=C(NN=Cc1ccc2ccccc2n1)c1cccc(O)c1` [Compound 20], the results for the inhibition in vivo at 100 mg/kg with H. contortus (setting [2]) and with H. contortus (setting [3]) were 20.3% and 0%, respectively.

Take `COc1ccc(C(=O)NN=Cc2ccc3ccccc3n2)cc1` [Compound 22, 4-methoxybenzoic acid (2-quinolinylmethylene)hydrazide]: the values for the inhibition in vivo at 100 mg/kg in the assay with H. contortus (setting [2]) and in the assay on H. contortus (setting [3]) were 14.3% and 0%, respectively.

On to `O=C(NN=Cc1ccc2ccccc2n1)c1cccc([N+](=O)[O-])c1` [Compound 23, 3-nitrobenzoic acid (2-quinolinylmethylene)hydrazide], for which the values for the inhibition in vivo at 100 mg/kg with H. contortus (setting [2]) and in the assay with H. contortus (setting [3]) were 0% and 39.5%, respectively.

For `COC(=O)NN=Cc1ccnc2ccccc12` [Compound 25, methyl (4-quinolinylmethylene)carbazate], the inhibition in vivo at 100 mg/kg in the assay on H. contortus (setting [3]) amounted to 3.4%.

Turning to `O=C(NN=Cc1ccnc2ccccc12)c1ccc(C(F)(F)F)cc1` [Compound 26, 4-trifluoromethylbenzoic acid (4-quinolinylmethylene)hydrazide], the values for the inhibition in vivo at 100 mg/kg in the assay with H. contortus (setting [2]) and with H. contortus (setting [3]) were 29% and 40.2%, respectively.

Take `O=C(NN=Cc1ccnc2ccccc12)C1CCC1` [Compound 29, cyclobutanecarboxylic acid (4-quinolinylmethylene)hydrazide]: the inhibition in vivo at 100 mg/kg in the assay with H. contortus (setting [2]) amounted to 88.4%; in the assay on H. contortus (setting [3]), 99.8%.

Take `CCC(=O)NN=Cc1cnc2ccccc2c1` [Compound 39]: the inhibition in vivo at 100 mg/kg in the assay on H. contortus (setting [3]) was 96.4%.

As to `O=C(NN=Cc1cnc2ccccc2c1)C1CCCCC1` [Compound 41], the inhibition in vivo at 100 mg/kg in the assay on H. contortus (setting [3]) came out at 98.2%.

Regarding `CC(=O)NN=Cc1cnc2ccccc2c1` [Compound 43], the inhibition in vivo at 100 mg/kg with H. contortus (setting [3]) worked out at 85.4%.
